In ChEMBL document CHEMBL5724914, “Linking interpersonal differences in gut microbiota composition and drug biotransformation activity” (2024):

Assays:
[1] = (§1) The drug is tested on Z-029 corresponding to rat gut metagenome with ENA study accession number: PRJEB37062 and ENA sample accession number: ERS12561828 for biotransformation under anaerobic condition. The drug concentrations were measured over 9 timepoints collected between 0 and 24 hours of incubation by liquid-chromatography-coupled mass spectrometry (LC–MS); conditions: 2 µM
[2] = as §1, with “on Z-024” for “on Z-029”, “to pig” for “to rat”, “number: ERS12561823” for “number: ERS12561828”; conditions: 2 µM
[3] = as §1, with “on Z-020” for “on Z-029”, “to rabbit” for “to rat”, “number: ERS12561819” for “number: ERS12561828”; conditions: 2 µM
[4] = as §1, with “on Z-017” for “on Z-029”, “to mouse” for “to rat”, “number: ERS12561816” for “number: ERS12561828”; conditions: 2 µM
[5] = as §1, with “on Z-016” for “on Z-029”, “to mouse” for “to rat”, “number: ERS12561815” for “number: ERS12561828”; conditions: 2 µM
[6] = as §1, with “on Z-006” for “on Z-029”, “to mouse” for “to rat”, “number: ERS12561806” for “number: ERS12561828”; conditions: 2 µM
[7] = as §1, with “Z-005” for “Z-029”, “to” for “to rat gut”, “ERS12561805” for “ERS12561828”; conditions: 2 µM
[8] = as §1, with “on Z-003” for “on Z-029”, “to pig” for “to rat”, “number: ERS12561803” for “number: ERS12561828”; conditions: 2 µM
[9] = as §1, with “on WLS-370” for “on Z-029”, “to human” for “to rat”, “number: ERS12561793” for “number: ERS12561828”; conditions: 2 µM
[10] = as §1, with “on WLS-090” for “on Z-029”, “to human” for “to rat”, “number: ERS12561753” for “number: ERS12561828”; conditions: 2 µM
[11] = as §1, with “on WLS-073” for “on Z-029”, “to human” for “to rat”, “number: ERS12561749” for “number: ERS12561828”; conditions: 2 µM
[12] = as §1, with “on WLS-039” for “on Z-029”, “to human” for “to rat”, “number: ERS12561746” for “number: ERS12561828”; conditions: 2 µM
[13] = human gut metagenome, 24 h, 2 µM
[14] = human gut metagenome, 24 h, 2 µM; remark: listed apart in the source
[15] = human gut metagenome, 24 h, 2 µM; remark: listed apart in the source
[16] = human gut metagenome, 24 h, 2 µM; remark: listed apart in the source
[17] = human gut metagenome, 24 h, 2 µM; remark: listed apart in the source
[18] = human gut metagenome, 24 h, 2 µM; remark: listed apart in the source
[19] = human gut metagenome, 24 h, 2 µM; remark: listed apart in the source
[20] = human gut metagenome, 24 h, 2 µM; remark: listed apart in the source
Further: call rule not given here.

| SMILES | Bacterial Biotransformation [1] | Bacterial Biotransformation [2] | Bacterial Biotransformation [3] | Bacterial Biotransformation [4] | Bacterial Biotransformation [5] | Bacterial Biotransformation [6] | Bacterial Biotransformation [7] | Bacterial Biotransformation [8] | Bacterial Biotransformation [9] | Bacterial Biotransformation [10] | Bacterial Biotransformation [11] | Bacterial Biotransformation [12] | Bacterial Biotransformation [13] | Bacterial Biotransformation [14] | Bacterial Biotransformation [15] | Bacterial Biotransformation [16] | Bacterial Biotransformation [17] | Bacterial Biotransformation [18] | Bacterial Biotransformation [19] | Bacterial Biotransformation [20] |
| --- | --- | --- | --- | --- | --- | --- | --- | --- | --- | --- | --- | --- | --- | --- | --- | --- | --- | --- | --- | --- |
| O=C(CCCN1CCC(O)(c2ccc(Cl)cc2)CC1)c1ccc(F)cc1 [HALOPERIDOL] | Compound NOT metabolized | Compound NOT metabolized | Compound NOT metabolized | Compound NOT metabolized | Compound NOT metabolized | Compound NOT metabolized | Compound NOT metabolized | Compound metabolized | Compound NOT metabolized | Compound metabolized | Compound NOT metabolized | Compound metabolized | Compound NOT metabolized | Compound NOT metabolized | Compound metabolized | Compound NOT metabolized | Compound NOT metabolized | Compound NOT metabolized | Compound metabolized | Compound metabolized |
| CCCC(=O)Nc1ccc(OCC(O)CNC(C)C)c(C(C)=O)c1 (stereo not given) [ACEBUTOLOL] | Compound NOT metabolized | Compound NOT metabolized | Compound NOT metabolized | Compound NOT metabolized | Compound NOT metabolized | Compound NOT metabolized | Compound NOT metabolized | Compound metabolized | Compound NOT metabolized | Compound metabolized | Compound NOT metabolized | Compound NOT metabolized | Compound metabolized | Compound NOT metabolized | Compound metabolized | Compound metabolized | Compound metabolized | Compound NOT metabolized | Compound metabolized | Compound metabolized |
| CCOc1ccc(NC(C)=O)cc1 [PHENACETIN] | Compound NOT metabolized | Compound NOT metabolized | Compound NOT metabolized | Compound NOT metabolized | Compound NOT metabolized | Compound NOT metabolized | Compound NOT metabolized | Compound NOT metabolized | Compound NOT metabolized | Compound NOT metabolized | Compound NOT metabolized | Compound NOT metabolized | Compound NOT metabolized | Compound NOT metabolized | Compound NOT metabolized | Compound NOT metabolized | Compound NOT metabolized | Compound NOT metabolized | Compound NOT metabolized | Compound NOT metabolized |
| CCOC(=O)[C@H](CCc1ccccc1)N[C@@H](C)C(=O)N1[C@H](C(=O)O)C[C@@H]2CCC[C@@H]21 | Compound NOT metabolized | Compound metabolized | Compound metabolized | Compound NOT metabolized | Compound metabolized | Compound NOT metabolized | Compound metabolized | Compound metabolized | Compound metabolized | Compound metabolized | Compound metabolized | Compound metabolized | Compound metabolized | Compound metabolized | Compound metabolized | Compound metabolized | Compound metabolized | Compound metabolized | Compound metabolized | Compound metabolized |
| CC[C@H](C)C(=O)O[C@H]1C[C@@H](C)C=C2C=C[C@H](C)[C@H](CC[C@@H]3C[C@@H](O)CC(=O)O3)[C@H]21 [LOVASTATIN] | Compound NOT metabolized | Compound metabolized | Compound metabolized | Compound metabolized | Compound NOT metabolized | Compound NOT metabolized | Compound NOT metabolized | Compound NOT metabolized | Compound NOT metabolized | Compound NOT metabolized | Compound NOT metabolized | Compound NOT metabolized | Compound NOT metabolized | Compound NOT metabolized | Compound NOT metabolized | Compound metabolized | Compound NOT metabolized | Compound NOT metabolized | Compound NOT metabolized | Compound NOT metabolized |
| O=c1n(CCCN2CCN(c3cccc(Cl)c3)CC2)nc2ccccn12 [TRAZODONE] | Compound NOT metabolized | Compound metabolized | Compound NOT metabolized | Compound NOT metabolized | Compound NOT metabolized | Compound NOT metabolized | Compound NOT metabolized | Compound metabolized | Compound metabolized | Compound metabolized | Compound metabolized | Compound NOT metabolized | Compound NOT metabolized | Compound NOT metabolized | Compound metabolized | Compound metabolized | Compound NOT metabolized | Compound NOT metabolized | Compound metabolized | Compound metabolized |
| CC(C)(C)NC[C@H](O)COc1ccccc1C1CCCC1.CC(C)(C)NC[C@H](O)COc1ccccc1C1CCCC1.O=S(=O)(O)O [PENBUTOLOL SULFATE] | Compound NOT metabolized | Compound metabolized | Compound metabolized | Compound NOT metabolized | Compound NOT metabolized | Compound NOT metabolized | Compound metabolized | Compound metabolized | Compound metabolized | Compound metabolized | Compound metabolized | Compound metabolized | Compound metabolized | Compound metabolized | Compound metabolized | Compound metabolized | Compound metabolized | Compound metabolized | Compound metabolized | Compound metabolized |
| CC(=O)OCC(=O)[C@@]12N=C(C)O[C@@H]1C[C@H]1[C@@H]3CCC4=CC(=O)C=C[C@]4(C)[C@H]3[C@@H](O)C[C@@]12C [DEFLAZACORT] | Compound NOT metabolized | Compound metabolized | Compound metabolized | Compound metabolized | Compound metabolized | Compound metabolized | Compound metabolized | Compound metabolized | Compound metabolized | Compound metabolized | Compound metabolized | Compound metabolized | Compound metabolized | Compound metabolized | Compound metabolized | Compound metabolized | Compound metabolized | Compound metabolized | Compound metabolized | Compound metabolized |
